pIC50: −log10 of the molar value. Where two headings read alike, the source gives them in different places.
Columns and labels:
[1] = system: Colo205 human colon adenocarcinoma cell line (doxorubicin-sensitive); assay: MTT assay, cytotoxicity at pH 6 and 7; type: cell-based; details: Colo205, 72 h incubation, read-out: IC50
Procedure: (§1) All cell culture reagents were obtained from Sigma-Aldrich (Merck KGaA, Darmstadt, Germany) and plasticware from Sarstedt (Nümbrecht, Germany). Human colonic adenocarcinoma cell lines Colo205 (catalog number: ATCC-CCL-222) and its doxorubicin-resistant counterpart Colo320 (catalog number: ATCC-CCL-220.1) were purchased from LGC Promochem (Teddington, UK). The cells were cultured in RPMI 1640 medium supplemented with 10% heat-inactivated fetal bovine serum, 2 mM L-glutamine, 1 mM sodium pyruvate, and 100 mM HEPES buffer, adjusting the pH to 6.0 or 7.0. The cells were incubated at 37 °C in a 5% CO2–95% air atmosphere. The semiadherent human colon cancer cells were detached with Trypsin-Versene solution for 5 min at 37 °C.
(§2) The solutions were freshly prepared prior to measurements (see Section 2.1). […] Firstly, these samples were diluted in complete culture medium; then, two-fold serial dilutions of the compounds were prepared in 100 μL of RPMI 1640, horizontally. The semiadherent colonic adenocarcinoma cells were treated with Trypsin-Versene solution. They were adjusted to a density of 1 × 10^4 cells in 100 μL of RPMI 1640 medium and were added to each well, with the exception of the medium control wells. The final volume of the wells containing compounds and cells was 200 μL. Samples were triplicated. The pH of the medium was adjusted to 6.0 or 7.0.
(§3) The culture plates were incubated at 37 °C for 72 h; at the end of the incubation period, 20 μL of MTT solution (from a stock solution of 5 mg/mL) was added to each well. After incubation at 37 °C for 4 h, 100 μL of SDS solution (10% in 0.01 M HCI) was added to each well, and the plates were further incubated at 37 °C overnight. Cell growth was determined by measuring the optical density (OD) at 540/630 nm with a Multiscan EX ELISA reader (Thermo Labsystems, Cheshire, WA, USA). […] Curves were fitted using GraphPad Prism software (2022, version 9.4.1, Graphpad Software (LLC) d.b.a Dotmatics, San Diego, CA, USA) using the sigmoidal dose–response model (comparing variable and fixed slopes).
(§4) The pH-dependent solution speciation of the selected mixed-ligand complexes is an important feature in the hypothesized mechanism of action, and the modeling of acidosis is necessary for the in vitro anticancer assays. In order to find out the cytotoxicity difference based on the pH of the medium, cytotoxic activity was determined at pH 6 and 7 by MTT assay in two human colon adenocarcinoma cell lines (doxorubicin-sensitive Colo205 and doxorubicin-resistant Colo320). […] The mixed-ligand complexes were prepared prior to the measurements, as was already described in Section 2.1. With this method, the effect of the different counter ions could be avoided, and a more adequate comparison of the mixed-ligand complexes could be conducted.

[2] = system: Colo320 human colon adenocarcinoma cell line (doxorubicin-resistant); assay: MTT assay, cytotoxicity at pH 6 and 7; type: cell-based; details: Colo320, 72 h incubation, read-out: IC50
Procedure: as §1, §2, §3, §4

[3] = system: E. coli 32313 (resistant); assay: Antibacterial assay, MIC in 96-well plates at different pH; type: cell-based
Text: (§5) The antibacterial effect was studied in two Gram-positive and in two Gram-negative strains. The Gram-positive S. aureus ATCC 25923 (ATCC, Manassas, VA, USA) is a methicillin-susceptible reference bacterial strain, while S. aureus 272123 is a clinical isolate and resistant to methicillin and ofloxacin (MRSA), which was given by Prof. Dr. Leonard Amaral (Institute of Hygiene and Tropical Medicine, Lisbon, Portugal). The Gram-negative strains were E. coli ATCC 25922 (ATCC, Manassas, VA, USA), which is sensitive to antibiotics, and E. coli 32313 (provided by the Institute of Clinical Microbiology, University of Szeged, Hungary), which is resistant to different antibiotics (trimethoprim/sulfamethoxazole, gentamicin, ciprofloxacin, and norfloxacin).
(§6) The minimum inhibitory concentrations (MICs) of the compounds were determined in 96-well plates based on the Clinical and Laboratory Standard Institute guidelines. The compounds were diluted in 100 μL of Mueller Hinton broth. Then, an overnight bacterial culture diluted 10,000 times in 100 μL of medium was added to each well, with the exception of the medium control wells. For each strain and each tested compound, four pH values were set (5, 6, 7, and 8). Each sample was triplicated.

[4] = system: S. aureus ATCC 25923 (methicillin-susceptible); assay: as above; type: cell-based
Text: as §5, §6

[5] = system: S. aureus 272123 (MRSA); assay: as above; type: cell-based
Text: as §5, §6

[6] = system: E. coli ATCC 25922 (sensitive); assay: as above; type: cell-based
Text: as §5, §6

[7] = Formation constants of mixed-ligand half-sandwich complexes (UV-vis and 1H NMR); type: physicochemical; details: for Formation constant logK of mixed-ligand complex: aqua complex + monodentate ligand, I = 0.10 M (KCl), t = 25.0 °C, UV-vis and 1H NMR; for formation of the mixed-ligand complex: under the applied conditions, 1H NMR, limit of detection 5%
Procedure: NMR spectroscopic studies were carried out on a Bruker Avance III HD Ascend 500 Plus instrument. For the aqueous samples, ^1H NMR spectra were recorded with the WATERGATE water suppression pulse scheme using DSS internal standard. The highest peak of DSS was 0.00 ppm. The measurement was very similar to the UV-vis measurement since the complex–to–monodentate ligand ratio was also between 0–10 equivalents; the spectra were recorded after the given waiting time. […] This technique was useful in those cases where no spectral change was visible during the UV-vis titrations.
In both measurement methods, the formation constant (K) was obtained using the computer program PSEQUAD [38].
It is worthwhile to mention that the liberation of the bidentate ligand was not detected even at higher monodentate ligand excess (~10), which means that the disruption of the bond between the bidentate ligand and the metal center is not feasible under these conditions. The calculated formation constants are compared in Figure 5 and are collected in Table S2. The formation of the mixed-ligand complexes was not detected in three cases under the applied conditions, namely [Ru(p-cym)(en)(mim)]^2+, [Ru(p-cym)(phen)(mim)]^2+, and [Ru(p-cym)(en)(Py)]^2+. For these complexes, only a higher limit of the formation constant could be given, assuming that a maximum of 5% of the complex would form (limit of detection) under the conditions used for ^1H NMR spectroscopy. Based on Figure 5, the following trends are observed in the formation constants: (i) [RhCp*(en)(H2O)]^2+ and [RhCp*(phen)(H2O)]^2+ have a stronger monodentate ligand-binding ability than the Ru(p-cym) analogs; (ii) the formation constants of the [Ru(p-cym)(8HQH-1)(N)]^+ complexes are similar or somewhat higher than those of the RhCp* analogs; (iii) a stability trend for the monodentate ligand: mim > bim > Py (iv) and the bidentate ligand: 8HQH-1 > phen ≥ en can be seen.

SMILES: Cc1c(C)c(C)[c-](C)c1C.[Cl-].[Cl-].[Rh+3].c1cnc2c(c1)ccc1cccnc12 [[RhCp*(phen)Cl]Cl]
- pIC50 ([1]; pH 6): < 4.00
- pIC50 ([1]; pH 7): < 4.00
- pIC50 ([2]; pH 6): < 4.00
- pIC50 ([2]; pH 7): < 4.00
- MIC ([3]; E. coli resistant, pH 5, after one day, read-out: MIC): > 100 µM
- MIC ([3]; E. coli resistant, pH 6, after one day, read-out: MIC): >100 µM
- MIC ([3]; E. coli resistant, pH 7, after one day, read-out: MIC): >100 µM
- MIC ([3]; E. coli resistant, pH 8, after one day, read-out: MIC): > 100 µM
- MIC ([3]; any of the bacterial strains, resistant E. coli, read-out: MIC (no antibacterial effect)): > 100 µM
- MIC ([4]; S. aureus sensitive, pH 7, after one day, read-out: MIC): >100 µM
- MIC ([4]; S. aureus sensitive, pH 8, after one day, read-out: MIC): > 100 µM
- MIC ([4]; any of the bacterial strains, S. aureus, read-out: MIC (no antibacterial effect)): > 100 µM
- MIC ([5]; any of the bacterial strains, read-out: MIC (no antibacterial effect)): > 100 µM
- MIC ([5]; pH 5, after one day, read-out: MIC): > 100 µM
- MIC ([5]; pH 6, after one day, read-out: MIC): >100 µM
- MIC ([5]; pH 7, after one day, read-out: MIC): >100 µM
- MIC ([5]; pH 8, after one day, read-out: MIC): > 100 µM
- MIC ([6]; E. coli sensitive, pH 5, after one day, read-out: MIC): > 100 µM
- MIC ([6]; E. coli sensitive, pH 6, after one day, read-out: MIC): >100 µM
- MIC ([6]; E. coli sensitive, pH 7, after one day, read-out: MIC): >100 µM
- MIC ([6]; E. coli sensitive, pH 8, after one day, read-out: MIC): > 100 µM
- MIC ([6]; any of the bacterial strains, E. coli, read-out: MIC (no antibacterial effect)): > 100 µM

SMILES: Cc1ccc(C(C)C)cc1.NCCN.[Ru+2].c1ccncc1 [[Ru(p-cym)(en)(Py)]^2+]
- Formation constant logK of mixed-ligand complex [7]: < 1.5
- formation of the mixed-ligand complex [7]: not detected

SMILES: Cc1ccc(C(C)C)cc1.Cn1ccnc1.NCCN.[Ru+2] [[Ru(p-cym)(en)(mim)]^2+]
- formation of the mixed-ligand complex [7]: not detected

SMILES: Cc1ccc(C(C)C)cc1.Cn1ccnc1.[Ru+2].c1cnc2c(c1)ccc1cccnc12 [[Ru(p-cym)(phen)(mim)]^2+]
- formation of the mixed-ligand complex [7]: not detected

SMILES: Cc1ccc(C(C)C)cc1.[Ru+][O]c1cccc2cccnc12.c1ccncc1 [[RuCym(8HQH-1)(H2O)]+ + Py]
- Formation constant logK of mixed-ligand complex [7]: 1.6 ± 0.2

SMILES: Cc1ccc(C(C)C)cc1.[Ru+][O]c1cccc2cccnc12.c1ccc2[nH]cnc2c1 [[RuCym(8HQH-1)(H2O)]+ + bim]
- Formation constant logK of mixed-ligand complex [7]: 2.9 ± 0.1

SMILES: Cc1ccc(C(C)C)cc1.NCCN.[Ru+2].c1ccc2[nH]cnc2c1 [[RuCym(en)(H2O)]2+ + bim]
- Formation constant logK of mixed-ligand complex [7]: 3.5 ± 0.1

Source: paper PMC9964319, “Half-Sandwich Rhodium Complexes with Releasable N-Donor Monodentate Ligands: Solution Chemical Properties and the Possibility for Acidosis Activation” (Pharmaceutics, 2023)
